Experimental data from patent US7238801B2, “Phthalocyanine compound, method for production thereof, and near infrared absorbing dye and near infrared absorbing filter using same” (Nippon Shokubai Co., Ltd., priority 2002, dated 2007).
Like-named read-outs stand apart in the source and are kept apart here.

Experiments:
Type in all cases: physicochemical
[1] = Maximum absorption wavelength by spectrophotometer
Method: Now, working examples and comparative examples will be described below. The maximum absorption wavelengths (λmax) reported in this invention are magnitudes determined in acetone.
The phthalocyanine compound obtained in the present example, i.e. VOPc(PhS)8{2,6-(CH3)2PhO}4{(C2H5)2NCH2CH2NH}4, was tested for maximum absorption wavelengths in acetone and in chloroform by the use of a spectrophotometer (made by Shimadzu Seisakusho Ltd. and sold under the trademark designation of “UVl-3100”).

[2] = Solubility in toluene and methyl ethyl ketone at room temperature; conditions: 10 ml, room temperature (25° C.), visual; for Solubility MEX: methyl ethyl ketone
Text: The solubility shown in Table 23 represents the data obtained by rating the relevant values on the […] scale, wherein ⊚ stands for a value of not less than 5% by weight, ◯ for a value of not less than 1% by weight and less than 5% by weight, Δ for a value of not less than 0.1% by weight and less than 1% by weight, and X for a value of less than 0.1% by weight.

[3] = Maximum absorption wavelength by spectrophotometer; remark: listed apart in the source

Substance | Max. absorption wavelength (in acetone) [1] [nm] | Max. absorption wavelength (in chloroform) [1] [nm] | Max. absorption wavelength (in acetone) [3] [nm] | Solubility MEX [2] | Solubility toluene [2]
VOPc(PhS)8{2,6-(CH3)2PhO}4{(C2H5)2NCH2CH2NH}4 [Example 1] | 941 | 960 |  | ⊚ (a value of not less than 5% by weight) | ⊚ (a value of not less than 5% by weight)
VOPc(PhS)8{2,6-(CH3)2PhO}4{(CH3)2CHO(CH2)3NH}4 [Example 9] | 930 | 949 |  | ⊚ (a value of not less than 5% by weight) | ⊚ (a value of not less than 5% by weight)
VOPc(PhS)8{2,6-(CH3)2PhO}4{(CH3CH2O(CH2)3NH}4 [Example 8] | 928 | 947 |  | ⊚ (a value of not less than 5% by weight) | ⊚ (a value of not less than 5% by weight)
VOPc(PhS)8{2,6-(CH3)2PhO}4{CH3(CH2)3CH(C2H5)CH2NH}4 [Example 16] | 939 | 958 |  | ⊚ (a value of not less than 5% by weight) | ⊚ (a value of not less than 5% by weight)
VOPc(PhS)8{2,6-(CH3)2PhO}4{CH3(CH2)3CH(C2H5)CH2O(CH2)3NH}4 [Example 11] | 933 | 952 |  | ⊚ (a value of not less than 5% by weight) | ⊚ (a value of not less than 5% by weight)
VOPc(PhS)8{2,6-(CH3)2PhO}4{CH3(CH2)3O(CH2)3NH}4 [Example 10] | 930 | 950 |  | ⊚ (a value of not less than 5% by weight) | ⊚ (a value of not less than 5% by weight)
VOPc(PhS)8{2,6-(CH3)2PhO}4{CH3(CH2)5NH}4 [Example 15] | 930 | 948 |  | ⊚ (a value of not less than 5% by weight) | ⊚ (a value of not less than 5% by weight)
VOPc(PhS)8{2,6-(CH3)2PhO}4{CH3(CH2)7NH}4 [Example 18] | 931 | 950 |  | ⊚ (a value of not less than 5% by weight) | ⊚ (a value of not less than 5% by weight)
VOPc{2-(CH3O)PhS}8{2,6-(CH3)2PhO}4{(C2H5)2NCH2CH2NH}4 [Example 2] | 950 | 970 |  | ⊚ (a value of not less than 5% by weight) | ⊚ (a value of not less than 5% by weight)
VOPc{4-(CH3O)PhS}8{2,6-(CH3)2PhO}4{CH3(CH2)3CH(C2H5)CH2NH}4 [Example 17] | 960 | 980 | 962 | ⊚ (a value of not less than 5% by weight) | ⊚ (a value of not less than 5% by weight)

Second part, led by results:

Max. absorption wavelength (in acetone) [1] [nm] | Max. absorption wavelength (in chloroform) [1] [nm] | Max. absorption wavelength (in acetone) [3] [nm] | Substance | Solubility MEX [2] | Solubility toluene [2]
807 |  |  | CuPc(2,5-Cl2PhO)8{2,6-(CH3)2PhO}4(PhCH2NH)4 [reference compound] |  | 
870 |  |  | VOPc(2,5-Cl2PhO)8{2,6-(CH3)2PhO}4(PhCH2NH)4 [reference compound] |  | 
834 |  |  | VOPc(2,5-Cl2PhO)8{2,6-(CH3)2PhO}4{Ph(CH)3CHNH}3]F [reference compound] |  | 
840 |  |  | VOPc(2,5-Cl2PhO)8{2,6-Br2-4-CH3PhO}4 {Ph(CH)3CHNH}3]F [reference compound] |  | 
834 |  |  | VOPc(4-CNPhO)8{2,6-(CH3)2PhO}4{Ph(CH)3CHNH}3F [reference compound] |  | 
912 |  |  | VOPc(PhS)8{2,6-(CH3)2PhO}4(PhCH2NH)4 [reference compound] |  | 
952 | 970 |  | VOPc(PhS)8{2,6-(CH3)2PhO}4[{(CH3)2CH}2NCH2CH2NH]4 [Example 3] | ⊚ (a value of not less than 5% by weight) | ⊚ (a value of not less than 5% by weight)
935 | 954 |  | VOPc(PhS)8{2,6-(CH3)2PhO}4{CH3(CH2)17NH}4 [Example 19] | ⊚ (a value of not less than 5% by weight) | ⊚ (a value of not less than 5% by weight)
944 | 963 |  | VOPc(PhS}8{2,6-(CH3)2PhO}4[{CH3(CH2)2CH}2NCH2CH2NH]4 [Example 4] | ⊚ (a value of not less than 5% by weight) | ⊚ (a value of not less than 5% by weight)
